Test results taken from PMC6389928, “Biomolecular Interaction, Anti-Cancer and Anti-Angiogenic Properties of Cobalt(III) Schiff Base Complexes” (Scientific Reports, 2019).
Like-named read-outs stand apart in the source and are kept apart here.

What was measured:
DNA [1] = conditions: cited from earlier work
DNA [2] = experiment: Viscosity measurement of DNA; format: binding; conditions: 30.0 ± 0.2 °C, increasing amounts of compound
Description: The mode of interaction between DNA and complexes has been further confirmed using viscosity measurements. The intercalation between DNA and metal complex causes lengthening of the DNA helix and increases DNA’s relative viscosity. Ethidium bromide (EB) is a well known DNA intercalator which was used as a standard to make sure our viscosity determination was working properly. […] The increase in relative viscosity follows the DNA-intercalating ability and the order of relative viscosity is EB > 2 > 1.
CD spectra of CT–DNA in the absence and presence of cobalt(III) complexes 1 and 2 were recorded in phosphate buffer. Each sample solution was scanned in the range of 200–320 nm, and final CD spectra were generated after averaging three scans subtracting the buffer background. Viscosity experiments were performed using an Ubbelohde viscometer at a constant temperature (30.0 ± 0.2 °C).

A549 lung carcinoma cell = experiment: MTT assay on A549 cells; conditions: A549 lung cancer cells, tested separately
Description: The anti-proliferative property of the complexes 1 and 2 at different concentrations on A549 lung carcinoma cell and monkey kidney epithelial cell Vero was examined by adopting MTT assay (Fig. S7). […] The naked cobalt acetate and ligands salen and salophen were separately tested on A549 cells to understand if metal chelation is the principal basis of the anticancer activity of the complexes.
Culture: Human lung cancer cells (A549) were received from National Centre for Cell Science (NCCS) Pune, India. Vero cells were obtained from ATCC. The cells were grown at humidified atmosphere of 5% CO2 in an incubator at 37 °C (Forma, Thermo Scientific, USA) in DMEM medium (Invitrogen) containing 10% FBS (Sigma-Aldrich, St. Louis, Mo, USA), 100 μg/mL of penicillin and 100 μg/mL streptomycin were used as antibiotics (Himedia, Mumbai, India). […] The cells were seeded in 96 well plates (5000 A549 cells per well) and allowed to attach for 24 h. The cells were then incubated with different concentrations of the metal complexes 1 and 2 dissolved in 100% dimethyl sulfoxide (DMSO) (Sigma-Aldrich) and prepared to a final dilution of 0.02% of DMSO.
In the determination of IC50 value, 0.02% DMSO was used as the solvent control. After the end of incubation period (24 h), the medium was aspirated carefully and replaced with new medium. The formazan formed was dissolved in100 μL of 100% DMSO to each well. The absorbance was monitored at 570 nm using a 96 well plate reader (Bio-Rad, Hercules, California, USA). All experiments were repeated for a minimum of three times when each experiment was done in two replicates.

Compound	Kb (DNA [1])	concentration up to which not cytotoxic (A549 lung carcinoma cell)	further results
CCCCCCCCCCCCCCN.NCCN.NCCN.[Cl-].[Co+3].[O-][Cl+3]([O-])([O-])[O-].[O-][Cl+3]([O-])([O-])[O-] [cis-[Co(en)2(C14H29NH2)Cl](ClO4)2]	25900 M⁻¹		
CC[n+]1c(-c2ccccc2)c2cc(N)ccc2c2ccc(N)cc21 [EB, ethidium bromide, reference compound]			Kb (DNA [1]; typical classical intercalator): 494000 M⁻¹; effect on relative viscosity of DNA (DNA [2]): significant increase in the viscosity of the DNA solutions
CCCCCCCCCCCCN.NCCNCCN.[Cl-].[Cl-].[Co+3].[O-][Cl+3]([O-])([O-])[O-] [[Co(dien)(DA)Cl2](ClO4)]	3110.8 M⁻¹		
CC(=O)[O-].CC(=O)[O-].O.O.O.O.[Co+2] [cobalt acetate, Cobalt(II) acetate tetrahydrate]		> 200 µM	
Oc1ccccc1C=Nc1ccccc1N=Cc1ccccc1O [salophen, N,N’-bis(salicylidene)-1,2-phenylenediamine]		> 200 µM	
CCCCCCCCCCCN.[Cl-].[Co+3].[O-][Cl+3]([O-])([O-])[O-].[O-][Cl+3]([O-])([O-])[O-].c1ccc(-c2ccccn2)nc1.c1ccc(-c2ccccn2)nc1 [cis-[Co(bpy)2(C11H23NH2)Cl](ClO4)2]	22100 M⁻¹		
CCCCCCCCCCCCCCN.[Cl-].[Co+3].[O-][Cl+3]([O-])([O-])[O-].[O-][Cl+3]([O-])([O-])[O-].c1ccc(-c2ccccn2)nc1.c1ccc(-c2ccccn2)nc1 [cis-[Co(bpy)2(C14H29NH2)Cl](ClO4)2]	28600 M⁻¹		
CCCCCCCCCCCCN.CCCCCCCCCCCCN.NCCNCCN.[Cl-].[Co+3].[O-][Cl+3]([O-])([O-])[O-].[O-][Cl+3]([O-])([O-])[O-] [[Co(dien)(DA)2Cl](ClO4)2]	14318 M⁻¹		
Oc1ccccc1C=NCCN=Cc1ccccc1O [salen, N,N’-bis(salicylidene)ethylenediamine]		> 200 µM	
[Co(dien)(CA)Cl2](ClO4)	9005.2 M⁻¹		
